Assay results: PubChem BioAssay AID248 (DTP/NCI, 2004)
Inconclusive results and toxic doses are left out. Square brackets hold non-standard residues; d marks the D form. Peptide text beside a SMILES is read from it. * marks the point of attachment. ξ: configuration not given here. Tos = Cc1ccc(S(=O)(=O)*)cc1; ξS = NC(CO)C(=O)O

System: L1210 leukemia ip in BDF1 mice, survival T/C
Experiment: NCI In Vivo Anticancer Drug Screen. Data for tumor model L1210 Leukemia (intraperitoneal) in B6D2F1 (BDF1) mice
Settings: endpoint: mean survival time, higher = longer survival
How it was run: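 Survival endpoint. Drug-treated group vs vehicle group, expressed as T divided by C. Tumor passaged by transplantation.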

[1] = dose: 100.0 mg/kg/injection, schedule: Q01DX001 (ip), vehicle: saline
[2] = dose: 200.0 mg/kg/injection, schedule: Q01DX001 (ip), vehicle: saline
[3] = dose: 400.0 mg/kg/injection, schedule: Q01DX001 (ip), vehicle: saline
[4] = dose: 100.0 mg/kg/injection, schedule: Q01DX009 (ip), vehicle: saline with Tween-80
[5] = dose: 200.0 mg/kg/injection, schedule: Q01DX009 (ip), vehicle: saline with Tween-80
[6] = dose: 400.0 mg/kg/injection, schedule: Q01DX009 (ip), vehicle: saline with Tween-80
[7] = dose: 100.0 mg/kg/injection, schedule: Q04DX003 (ip), vehicle: saline
[8] = dose: 200.0 mg/kg/injection, schedule: Q04DX003 (ip), vehicle: saline
[9] = dose: 400.0 mg/kg/injection, schedule: Q04DX003 (ip), vehicle: saline
[10] = dose: 100.0 mg/kg/injection, schedule: Q04DX003 (ip), vehicle: saline with Tween-80
[11] = dose: 200.0 mg/kg/injection, schedule: Q04DX003 (ip), vehicle: saline with Tween-80
[12] = dose: 400.0 mg/kg/injection, schedule: Q04DX003 (ip), vehicle: saline with Tween-80
[13] = dose: 100.0 mg/kg/injection, schedule: Q01DX009 (ip), vehicle: saline
[14] = dose: 200.0 mg/kg/injection, schedule: Q01DX009 (ip), vehicle: saline
[15] = dose: 400.0 mg/kg/injection, schedule: Q01DX009 (ip), vehicle: saline
[16] = dose: 100.0 mg/kg/injection, schedule: Q01DX009 (ip), vehicle: Klucel (hydroxypropylcellulose) (HPC)
[17] = dose: 200.0 mg/kg/injection, schedule: Q01DX009 (ip), vehicle: Klucel (hydroxypropylcellulose) (HPC)
[18] = dose: 100.0 mg/kg/injection, schedule: Q04DX003 (ip), vehicle: Klucel (hydroxypropylcellulose) (HPC)
[19] = dose: 200.0 mg/kg/injection, schedule: Q04DX003 (ip), vehicle: Klucel (hydroxypropylcellulose) (HPC)

With CCOC(=O)c1ccccc1NC(c1ccccc1)c1ccc2cccnc2c1O (stereo not given) the T/C [1] was 101 % of control, the T/C [2] was 97 % of control and the T/C [3] was 91 % of control.
For O=C1OC(c2ccccc2)(c2ccccc2)c2ccc3ccccc3c21, the T/C [4] was 98 % of control, the T/C [5] was 103 % of control and the T/C [6] was 98 % of control.
In the case of CC1(NC(=O)N(CCCl)N=O)CCCC1, the T/C (dose: 16.0 mg/kg/injection, schedule: Q01DX001 (ip), vehicle: carboxymethylcellulose (CMC)) is reported as 95 % of control, the T/C (dose: 31.0 mg/kg/injection, schedule: Q01DX001 (ip), vehicle: carboxymethylcellulose (CMC)) is reported as 113 % of control and the T/C (dose: 62.0 mg/kg/injection, schedule: Q01DX001 (ip), vehicle: carboxymethylcellulose (CMC)) is reported as 157 % of control. The T/C (dose: 125.0 mg/kg/injection, schedule: Q01DX001 (ip), vehicle: carboxymethylcellulose (CMC)) was 282 % of control and the T/C (dose: 250.0 mg/kg/injection, schedule: Q01DX001 (ip), vehicle: carboxymethylcellulose (CMC)) was 329 % of control.
CCC[N+](C)(C)CC[N+](C)(C)CCC was tested, and the T/C [1] was 99 % of control, the T/C [2] was 103 % of control and the T/C [3] was 101 % of control.
With O=Nc1c(O)[nH]c(=O)[nH]c1=O the T/C (dose: 100.0 mg/kg/injection, schedule: Q01DX001 (ip), vehicle: Klucel (hydroxypropylcellulose) (HPC)) was 95 % of control and the T/C (dose: 200.0 mg/kg/injection, schedule: Q01DX001 (ip), vehicle: Klucel (hydroxypropylcellulose) (HPC)) was 106 % of control.
CN(C)CC/C(=N\Nc1ccc([N+](=O)[O-])cc1[N+](=O)[O-])c1ccccc1 was tested, and the T/C (dose: 100.0 mg/kg/injection, schedule: Q01DX001 (ip), vehicle: saline with Tween-80) was 94 % of control, the T/C (dose: 200.0 mg/kg/injection, schedule: Q01DX001 (ip), vehicle: saline with Tween-80) was 92 % of control and the T/C (dose: 400.0 mg/kg/injection, schedule: Q01DX001 (ip), vehicle: saline with Tween-80) was 92 % of control.
CC1(C)N=C(N)N=C(N)N1c1cccc(OCc2cccc([N+](=O)[O-])c2)c1 was tested, and the T/C (dose: 5.0 mg/kg/injection, schedule: Q01DX001 (ip), vehicle: saline) was 104 % of control, the T/C (dose: 10.0 mg/kg/injection, schedule: Q01DX001 (ip), vehicle: saline) was 98 % of control and the T/C (dose: 20.0 mg/kg/injection, schedule: Q01DX001 (ip), vehicle: saline) was 110 % of control. The T/C (dose: 40.0 mg/kg/injection, schedule: Q01DX001 (ip), vehicle: saline) was 89 % of control and the T/C [1] was 96 % of control.
In the case of NC(=O)C1=Cc2cc(Cl)cc(Cl)c2OC1, the T/C [4] is reported as 93 % of control, the T/C [5] is reported as 93 % of control and the T/C [6] is reported as 98 % of control.
For OC(c1ccccc1)(c1ccccc1)C1CC1c1ccncc1 (stereo not given), the T/C (dose: 25.0 mg/kg/injection, schedule: Q04DX003 (ip), vehicle: saline) was 107 % of control, the T/C (dose: 50.0 mg/kg/injection, schedule: Q04DX003 (ip), vehicle: saline) was 104 % of control and the T/C [7] was 98 % of control. The T/C [8] was 98 % of control and the T/C [9] was 91 % of control.
With S=c1[nH]c2c(Cl)c(Cl)c(Cl)c(Cl)c2[nH]1 the T/C [4] was 90 % of control, the T/C [10] was 100 % of control and the T/C [5] was 95 % of control. The T/C [11] was 98 % of control and the T/C [12] was 102 % of control.
In the case of O=CC(C(O)C(O)C(O)CO)N1CCN(C(C=O)C(O)C(O)C(O)CO)CC1 (stereo not given), the T/C (dose: 50.0 mg/kg/injection, schedule: Q04DX002 (ip), vehicle: saline) is reported as 95 % of control, the T/C (dose: 100.0 mg/kg/injection, schedule: Q04DX002 (ip), vehicle: saline) is reported as 107 % of control and the T/C (dose: 200.0 mg/kg/injection, schedule: Q04DX002 (ip), vehicle: saline) is reported as 107 % of control.
For CCCC(NCc1ccccc1)C(=O)O (stereo not given), the T/C (dose: 100.0 mg/kg/injection, schedule: Q01DX009 (ip), vehicle: acetone) was 90 % of control, the T/C (dose: 200.0 mg/kg/injection, schedule: Q01DX009 (ip), vehicle: acetone) was 90 % of control and the T/C (dose: 400.0 mg/kg/injection, schedule: Q01DX009 (ip), vehicle: acetone) was 90 % of control.
In the case of COC(=O)c1c2c(c3c(c1C(=O)OC)CCC3)CCC2, the T/C [1] is reported as 98 % of control, the T/C [2] is reported as 95 % of control and the T/C [3] is reported as 92 % of control.
O=C1C(Cl)=CC(=NBr)C=C1Cl was tested, and the T/C (dose: 12.5 mg/kg/injection, schedule: Q04DX002 (ip), vehicle: Klucel (hydroxypropylcellulose) (HPC)) was 88 % of control, the T/C (dose: 25.0 mg/kg/injection, schedule: Q04DX002 (ip), vehicle: Klucel (hydroxypropylcellulose) (HPC)) was 92 % of control and the T/C (dose: 50.0 mg/kg/injection, schedule: Q04DX002 (ip), vehicle: Klucel (hydroxypropylcellulose) (HPC)) was 98 % of control.
Cc1ccc(S(=O)(=O)NC(CO)C(=O)NCC(=O)O)cc1 (stereo not given) (Tos-[ξS]-Gly-OH) was tested, and the T/C [13] was 103 % of control, the T/C [14] was 97 % of control and the T/C [15] was 91 % of control.
With O=C(O)c1c(Br)c(Br)c(Br)c(Br)c1C(=O)Nc1ccc(Cl)c(Cl)c1 the T/C [16] was 95 % of control, the T/C [17] was 98 % of control and the T/C (dose: 400.0 mg/kg/injection, schedule: Q01DX009 (ip), vehicle: Klucel (hydroxypropylcellulose) (HPC)) was 120 % of control.
With CCCCn1cnc2c(SC)ncnc21 the T/C (dose: 50.0 mg/kg/injection, schedule: Q01DX001 (ip), vehicle: saline) was 101 % of control, the T/C [1] was 107 % of control and the T/C [2] was 103 % of control.
For CCN(CC)C(=S)[S][Bi]([S]C(=S)N(CC)CC)[S]C(=S)N(CC)CC, the T/C (dose: 100.0 mg/kg/injection, schedule: Q01DX001 (ip), vehicle: steriod suspending solution) was 112 % of control, the T/C (dose: 200.0 mg/kg/injection, schedule: Q01DX001 (ip), vehicle: steriod suspending solution) was 91 % of control and the T/C (dose: 400.0 mg/kg/injection, schedule: Q01DX001 (ip), vehicle: steriod suspending solution) was 96 % of control.
In the case of Cc1ccc2nc3nc(-c4ccccc4)c(-c4ccccc4)nc3nc2c1, the T/C (dose: 75.0 mg/kg/injection, schedule: Q01DX001 (ip), vehicle: other) is reported as 93 % of control, the T/C (dose: 150.0 mg/kg/injection, schedule: Q01DX001 (ip), vehicle: other) is reported as 94 % of control and the T/C (dose: 300.0 mg/kg/injection, schedule: Q01DX001 (ip), vehicle: other) is reported as 89 % of control.
With O=S(=O)(OCC1CO1)c1ccc(Cl)cc1 (stereo not given) the T/C (dose: 100.0 mg/kg/injection, schedule: Q01DX008 (ip), vehicle: Klucel (hydroxypropylcellulose) (HPC)) was 101 % of control, the T/C (dose: 200.0 mg/kg/injection, schedule: Q01DX008 (ip), vehicle: Klucel (hydroxypropylcellulose) (HPC)) was 108 % of control and the T/C (dose: 400.0 mg/kg/injection, schedule: Q01DX008 (ip), vehicle: Klucel (hydroxypropylcellulose) (HPC)) was 108 % of control.
For CC(O)C(F)(F)C(F)(F)C(F)(F)C(C)O (stereo not given), the T/C [13] was 97 % of control, the T/C [7] was 102 % of control and the T/C [14] was 104 % of control. For the same compound, the T/C [8] was 96 % of control, the T/C [15] was 109 % of control and the T/C [9] was 96 % of control.
For Nc1nc2c(ncn2-c2cccc(NC(=O)Nc3cc(S(=O)(=O)F)ccc3Cl)c2)c(=O)[nH]1, the T/C (dose: 12.5 mg/kg/injection, schedule: Q01DX001 (ip), vehicle: Klucel (hydroxypropylcellulose) (HPC)) was 87 % of control, the T/C (dose: 25.0 mg/kg/injection, schedule: Q01DX001 (ip), vehicle: Klucel (hydroxypropylcellulose) (HPC)) was 96 % of control and the T/C (dose: 50.0 mg/kg/injection, schedule: Q01DX001 (ip), vehicle: Klucel (hydroxypropylcellulose) (HPC)) was 89 % of control.
For OCCNC1c2ccccc2-c2ccccc21, the T/C (dose: 50.0 mg/kg/injection, schedule: Q01DX009 (ip), vehicle: Klucel (hydroxypropylcellulose) (HPC)) was 100 % of control, the T/C [16] was 118 % of control and the T/C [18] was 102 % of control. For the same compound, the T/C [17] was 99 % of control and the T/C [19] was 107 % of control.
In the case of CCOC(=O)c1cnc(=O)[nH]c1Nc1ccccc1Cl, the T/C [18] is reported as 94 % of control, the T/C [19] is reported as 101 % of control and the T/C (dose: 400.0 mg/kg/injection, schedule: Q04DX003 (ip), vehicle: Klucel (hydroxypropylcellulose) (HPC)) is reported as 90 % of control.
Clc1ccccc1C1Nc2ccccc2S1 (stereo not given) was tested, and the T/C [1] was 109 % of control, the T/C [2] was 104 % of control and the T/C [3] was 99 % of control.
With CCn1c(=S)[nH]c(=O)c2n[nH]nc21 the T/C [10] was 88 % of control, the T/C [11] was 89 % of control and the T/C [12] was 93 % of control.
